Values of other authors as cited in patent US11576929B2, “Composition for inflammatory gastrointestinal disorders” (SUMITOMO SEIKA CHEMICALS CO., LTD., priority 2018, dated 2023).

System: colitis in rats
Settings: direct inhalation into rats

With `[C-]#[O+]` [CO (gas), carbon monoxide] as the compound, how does the colitis read?
Its colitis is “inhibited colitis”.
